Source: patent publication US20120270914A1, “SPLIT-LUCIFERASE C-MYC SENSOR AND USES THEREOF” (THE BOARD OF TRUSTEES OF THE LELAND STANFORD JUNIOR …, priority 2011, published 2012)

Tests used:
c-Myc [1] = experiment: Western blot analysis of endogenous phospho c-Myc in 293T cells; assay type: cell-based, human
Description: Western Blot Analysis: Total cell lysates were collected using 1× cell lysis buffer (Cell Signaling), as directed by the manufacturer. The protein concentration was determined using the BioRad DC protein assay. SDS/PAGE analysis of 50 μg of protein was transferred to an lmmobilon-P membrane (Millipore). Anti-phosphor-c-Myc (Thr58/Ser62) and anti-c-Myc antibody (Cell Signaling) were used to visualize the phospho c-Myc and c-Myc protein, respectively, as directed by the manufacturer. Anti-FLuc-HRP antibody was used to detect the FL fragments, as directed by the manufacturer (Sigma-Aldrich). β-actin protein was used as a loading control and detected by anti-β-actin antibody (Sigma-Aldrich). […] Protein levels were determined by quantifying the band intensities on Western blot analysis using ImageJ's ROI manager.
Drug Inhibition Assay: SKBR3 stable cells constitutively expressing the sensor system (SK ST) or the full-length FL (SK FST) were treated with PD98059 (Cell Signaling) for 2 h, U0126 (Cell Signaling) for 1 h, and purified AT (Sequoia Research Products) for 16 h at the indicated concentrations and imaged with D-Luc in the IVIS 50 BLI system (FIGS. 6A and 6B, and FIGS. 10A-12D). […] The correlation coefficient between the fold change of normalized FL activity and the fold change of normalized phospho c-Myc level (phospho c-Myc/β-actin) was determined based on the R^2 value.

c-Myc [2] = experiment: Drug inhibition assay: BLI of SKBR3 stable cells constitutively expressing the c-Myc sensor (SK ST), normalized to full-length FL cells (SK FST); assay type: cell-based, human; settings: for reduction in complemented FL activity compared between drugs: SK ST cells normalized to SK FST cells; for complemented FL activity: SK ST cells, after normalization to effect on FL activity of SK FST cells, PD98059 2 h, U0126 1 h, AT 16 h
Description: (§1) To test the ability of the sensor to monitor c-Myc phosphorylation levels on drug treatment, the SKBR3 and 293T stable cells (SK ST and 293T ST) were established that constitutively express the sensor. SKBR3 and 293T stable cells were also constructed that constitutively express the full-length FL (SK FST and 293T FST) for the control of direct drug effect on FL activity.
(§2) Luciferase Activity Assay: BLI of luciferase activity in intact cells was performed as described previously (Hann (2006) Semin Cancer Biol 16(4):288-302). In brief, 24 h after transfection, culture medium was replaced with a PBS solution (pH 7.0) of 45 μg/mL D-Luc for FL imaging or of 10 μg/mL of Clz for RL imaging with the IVIS BLI system (Xenogen). Images were acquired at 2-min intervals until the peak signal was reached. The photon output of FL or RL imaging in transiently transfected cells was normalized to co-expressed RL or FL activity, respectively, measured by an in vitro luminometry assay as described previously (Chan et al. (2008) Cancer Res. 68:216-226), then normalized to the total protein in the cell lysates, measured by the BioRad DC protein assay as directed by the manufacturer. In stable cells, the photon output of FL imaging was normalized to the total protein in the cell lysates.
(§3) Drug Inhibition Assay: SKBR3 stable cells constitutively expressing the sensor system (SK ST) or the full-length FL (SK FST) were treated with PD98059 (Cell Signaling) for 2 h, U0126 (Cell Signaling) for 1 h, and purified AT (Sequoia Research Products) for 16 h at the indicated concentrations and imaged with D-Luc in the IVIS 50 BLI system (FIGS. 6A and 6B, and FIGS. 10A-12D). In addition, 293T stable cells constitutively expressing the sensor system (293T ST) or the full-length FL (293T FST) were treated with AT for 16 h at the indicated concentrations (FIGS. 6A and 6B, and FIGS. 13A-13D) and imaged with D-Luc in the IVIS 50 system. The photon output of FL imaging was normalized to the total protein content, and the FL activity of SK ST or 293T ST was normalized to that of SK FST or 293T FST, respectively. SKBR3 and 293T cells were treated as above and lysed for Western blot analysis of phospho c-Myc, c-Myc, and β-actin proteins. The correlation coefficient between the fold change of normalized FL activity and the fold change of normalized phospho c-Myc level (phospho c-Myc/β-actin) was determined based on the R^2 value.

[3] = tested on: SK ST and SK FST xenografts; experiment: BLI of SK ST and SK FST subcutaneous xenografts in nude mice under AT treatment; assay type: in vivo
Description: The mice underwent gavage with AT (20 μL, 1.25 mM; n=5) or with PBS (20 μL; n=5) every other day.
BLI of Living Mice: BLI of mouse xenografts was performed with the IVIS Spectrum optical imaging system (Xenogen) as described previously (Chan et al. (2008) Cancer Res. 68:216-226, incorporated herein by refrence in its entirety), with some modifications. At 4 h after transient transfection with the indicated constructs (FIG. 7A), 5×10^6 SKBR3 cells were implanted subcutaneously into the indicated locations of nude mice (nu/nu; n=3). At 16 h after cell implantation, a Clz PBS (0.3 μg/μL; 100 μL) solution was injected intravenously for RL imaging. Then, 8 h later, FL imaging was acquired with D-Luc PBS solution (45 μg/μL; 100 μL) via intraperitoneal injection. Subsequently, 5×10^6 each of SK ST and SK FST cells were implanted subcutaneously into nude mice (nu/nu; n=10) as indicated (FIG. 8A). FL imaging was performed 1 day after the implantation and every other day thereafter. After each FL imaging, half of the mice underwent gavage with AT PBS solution (1.25 mM; 20 μL), and the other half did so with PBS only (20 μL). After 23 d of treatment, the mice were killed, and xenograft tissue samples were collected for Western blot analysis of phospho c-Myc, c-Myc, and α-tubulin proteins.

c-Myc [4] = settings: Shachaf et al. 2007; cited from earlier work
c-Myc [5] = experiment: Western blot analysis of endogenous phospho c-Myc in SKBR3 cells; assay type: cell-based, human; settings: for endogenous c-Myc phosphorylation level: Western blot
Description: (§4) FIGS. 26A and 26B illustrate the inhibition of endogenous c-Myc. FIG. 26A: Western blot analysis of SKBR3 cells after NTZ treatment was performed using phospho c-Myc, c-Myc protein, and β-actin antibodies. […] The fold-change of phospho c-Myc level was plotted against the log scale of NTZ concentration.
Western Blot Analysis: Total cell lysates were collected using 1× cell lysis buffer (Cell Signaling), as directed by the manufacturer. The protein concentration was determined using the BioRad DC protein assay. SDS/PAGE analysis of 50 μg of protein was transferred to an lmmobilon-P membrane (Millipore). Anti-phosphor-c-Myc (Thr58/Ser62) and anti-c-Myc antibody (Cell Signaling) were used to visualize the phospho c-Myc and c-Myc protein, respectively, as directed by the manufacturer. Anti-FLuc-HRP antibody was used to detect the FL fragments, as directed by the manufacturer (Sigma-Aldrich). β-actin protein was used as a loading control and detected by anti-β-actin antibody (Sigma-Aldrich). Immunoblots were developed using the Pierce ECL Kit, as directed by the manufacturer. Protein levels were determined by quantifying the band intensities on Western blot analysis using ImageJ's ROI manager.
as §3

c-Myc [6] = experiment: Drug inhibition assay: BLI of 293T stable cells expressing the c-Myc sensor (293T ST), normalized to 293T FST; assay type: cell-based, human; settings: 293T ST cells; after normalization to FL activity of 293T FST cells; AT 16 h
Description: as §1
as §2, with “lysates. […]” for “lysates.”

c-Myc [7] = experiment: Hydrodynamic injection of the c-Myc sensor and BLI in Eμ-tTA/Tet-O-MYC transgenic mice; assay type: in vivo
From the text: To test the in vivo application of the sensor system, SKBR3 cells were first transiently transfected separately with equal DNA molar amounts of the vectors pcDNA3.1(+), GSK 35-433-CFL/NFL-c-Myc or GSK 35-433-CFL/NFL-c-Myc T851 and implanted them subcutaneously in different locations in each nude mouse (n=3; FIG. 7A). hRL was also co-expressed for control of transfection efficiency. […] However, on intraperitoneal injection of the FL substrate D-Luciferin (D-Luc), xenografts carrying pcDNA3.1(+) had very low complemented FL activity, whereas those carrying GSK 35-433-CFL/NFL-c-Myc had 10.6-fold higher activity. Those carrying GSK 35-433-CFL/NFL-c-Myc T851 had 4.7-fold higher activity after normalization to their hRL activity (FIG. 7C). Thus, the complemented FL activity determined by the phosphorylation status of NFL-c-Myc can be imaged and quantified in a mouse xenograft model. The sensor system was also transiently expressed in the liver of two transgenic mice using hydrodynamic injection. These mice carried a liver-specific transgene of c-Myc under control of the Tet system (Shachaf et al. (2007) Blood 110: 2674-2684).
Both mice had doxycycline discontinued, followed by a 29-day course of treatment with AT in one mouse and with PBS in the other mouse. […] This signal reduction was consistent with the reduced endogenous c-Myc phosphorylation and the histological changes in the liver tissue samples (FIG. 7E).
Hydrodynamic Injection: Eμ-tTA/Tet-O-MYC transgenic mice (Shachaf et al. (2007) Blood 110: 2674-2684) (n=2) were removed from doxycycline treatment at 8 wk of age and underwent gavage with AT or PBS as described above. At 29 d after treatment, these two mice underwent imaging studies to characterize the liver phospho c-Myc level after hydrodynamic injection (Frame et al., (2001) Mol. Cell 7: 1321-1327) of the c-Myc sensor. […]

c-Myc [8] = experiment: Phospho c-Myc level in lymphoma cells; assay type: cell-based; settings: read-out: IC50, inhibition of phospho c-Myc level
Description: as §4

[9] = tested on: SK-ST subcutaneous tumor xenograft; experiment: SK-ST subcutaneous tumor xenograft mouse model under NTZ treatment; assay type: in vivo; settings: NTZ vs CMC treated groups, up to 27 days after implantation
From the text: FIGS. 27A and 27B illustrate the efficacy of NTZ in a SK-ST subcutaneous tumor xenograft mouse model. FIG. 27A: SK-ST stable cells were subcutaneously implanted as indicated and treated with NTZ or CMC. Representative images of FL imaging at indicated days of treatment are shown. FIG. 27B: Photon output of SK-ST cells with NTZ or CMC treatment is plotted against days after implantation. * P<0.05. […] FIG. 28A: Representative photographs of removed tumors from CMC or NTZ treated mice 27 days after implantation. FIG. 28B: Plot of caliper measured tumor sizes of NTZ or CMC treated groups at different days after implantation. *P<0.05, **P<0.01. FIGS. 29A and 29B illustrate immunohistochemistry and western blot analysis of NTZ treated tumor samples. FIG. 29A: Representative images of H&E, Ki67 and caspase-3 IHC staining of tumor tissue samples from each group. FIG. 29B: Western blot analysis of tumor tissue samples using phospho c-Myc, c-Myc and α-tubulin antibodies.

c-Myc [10] = experiment: Phospho c-Myc level in sarcoma cells; assay type: cell-based; settings: read-out: IC50, inhibition of phospho c-Myc level
Description: as §4

c-Myc [11] = settings: Hydbring et al. 2009; cited from earlier work
[12] = tested on: NFL-c-MycS62A mutant sensor; experiment: BLI of SKBR3 cells transiently transfected with the S62A mutant sensor; assay type: cell-based, human; settings: PD98059 1 h
Description: FIG. 14A is a digital image showing the NFL-c-Myc WT construct or the NFL-c-MycS62A mutant construct transiently transfected into SKBR3 cells with GSK 35-433-CFL construct and subjected to PD98059 of indicated concentration for 1 h, followed by BLI.
FIG. 14B is a graph showing FL activity normalized to co-transfected RL activity and the total protein content and plotted against the drug concentration.
These differential signal inhibitions also were correlated with the decreased endogenous c-Myc phosphorylation level, as shown in FIG. 6A.

SMILES: CC(C)c1c(C(=O)Nc2ccccc2)c(-c2ccccc2)c(-c2ccc(F)cc2)n1CC[C@@H](O)C[C@@H](O)CC(=O)O [AT, Atorvastatin]
- endogenous c-Myc phosphorylation level (c-Myc [1]): increase
- reduction in complemented FL activity compared between drugs (c-Myc [2]): greater reduction in complemented FL activity with lower drug concentrations than did U0126
- complemented FL activity (c-Myc [2]): dose-dependent reduction
- c-Myc phosphorylation levels in tumor tissue samples ([3]; 23 d after implantation, Western blot): decreased
- sensor signal (complemented FL activity of SK ST normalized to SK FST) ([3]; AT group): sustained decrease
- tumor size ([3]; AT vs PBS group): no detectable difference
- tumor growth ([3]; eventual effect of AT): reduced tumor growth
- complemented FL activity of SK ST xenografts ([3]; from 10 d after implantation, gavage AT 20 μL 1.25 mM every other day): increased only slightly
- FL activity of SK FST xenografts ([3]; up to about 18 d after implantation): higher in the PBS-treated group compared with the AT-treated group
- c-Myc-induced lymphomagenesis (c-Myc [4]): preventing
- phosphorylation of c-Myc (c-Myc [4]): reduce
- endogenous c-Myc phosphorylation level (c-Myc [5]): decreased
- complemented FL activity (c-Myc [6]): dose-dependent increase
- liver tumor size (c-Myc [7]; 29-day treatment, AT vs PBS, one mouse each): no significant difference
- endogenous c-Myc phosphorylation in liver tissue samples (c-Myc [7]; Western blot after 29-day treatment): reduced
- complemented FL activity in liver (c-Myc [7]; on addition of D-Luc, AT vs PBS treated mouse): much lower

SMILES: CC(=O)Oc1ccccc1C(=O)Nc1ncc([N+](=O)[O-])s1 [NTZ, nitazoxanide]
- IC50 (c-Myc [8]): 0.44 µM
- tumor growth (caliper measured tumor sizes) [9]: inhibition of tumor growth
- luciferase activity when cells are exposed to nitazoxanide (c-Myc [2]; in vitro validation of the assay system): decrease in luciferase activity
- IC50 (c-Myc [5]; read-out: IC50, inhibition of phospho c-Myc level): 0.122 µM
- IC50 (c-Myc [10]): 0.012 µM

SMILES: COc1cccc(-c2cc(=O)c3ccccc3o2)c1N [PD98059]
- c-Myc phosphorylation level in vitro (c-Myc [11]): decrease
- complemented FL activity (c-Myc [2]): dose-dependent reduction
- endogenous c-Myc phosphorylation level (c-Myc [5]): decreased
- response of mutant sensor to phosphorylation inhibition of c-Myc [12]: did not respond

SMILES: N#CC(=C(/N)Sc1ccccc1N)/C(C#N)=C(\N)Sc1ccccc1N [U0126]
- c-Myc phosphorylation level in vitro (c-Myc [11]): decrease
- reduction in complemented FL activity compared between drugs (c-Myc [2]): greater reduction than PD98059
- complemented FL activity (c-Myc [2]): dose-dependent reduction
- endogenous c-Myc phosphorylation level (c-Myc [5]): decreased
